These results are taken from patent US20260062387A1, “SALT-INDUCIBLE KINASE INHIBITOR COMPOUND AND PHARMACEUTICAL COMPOSITION INCLUDING THE SAME” (MITSUBISHI TANABE PHARMA CORPORATION, priority 2023, published 2026).

Holding throughout (format): biochemical
One assay deals with GST-tagged SIK1 (Homo sapiens (Human), UniProt P57059). The assay is described as follows: SIK1 inhibition test (ADP-Glo Max Assay). The conditions noted are these: enzyme 20 nM, AMARA Peptide 200 μM, ATP 1 mM, 2 hours room temperature. The method in brief: (§1)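 ADP formed was detected by luciferase luminescence after a 2 h room-temperature reaction with 1 mM ATP, 5 mM MgCl2 and AMARA peptide at 200 μM (SIK1, SIK2) or 100 μM (SIK3). Final GST-enzyme levels were 20 nM SIK1, 3 nM SIK2 and 100 nM SIK3. IC50 came from 16-point concentration-response data.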
GST-tagged SIK1, sequence (P57059 whole entry): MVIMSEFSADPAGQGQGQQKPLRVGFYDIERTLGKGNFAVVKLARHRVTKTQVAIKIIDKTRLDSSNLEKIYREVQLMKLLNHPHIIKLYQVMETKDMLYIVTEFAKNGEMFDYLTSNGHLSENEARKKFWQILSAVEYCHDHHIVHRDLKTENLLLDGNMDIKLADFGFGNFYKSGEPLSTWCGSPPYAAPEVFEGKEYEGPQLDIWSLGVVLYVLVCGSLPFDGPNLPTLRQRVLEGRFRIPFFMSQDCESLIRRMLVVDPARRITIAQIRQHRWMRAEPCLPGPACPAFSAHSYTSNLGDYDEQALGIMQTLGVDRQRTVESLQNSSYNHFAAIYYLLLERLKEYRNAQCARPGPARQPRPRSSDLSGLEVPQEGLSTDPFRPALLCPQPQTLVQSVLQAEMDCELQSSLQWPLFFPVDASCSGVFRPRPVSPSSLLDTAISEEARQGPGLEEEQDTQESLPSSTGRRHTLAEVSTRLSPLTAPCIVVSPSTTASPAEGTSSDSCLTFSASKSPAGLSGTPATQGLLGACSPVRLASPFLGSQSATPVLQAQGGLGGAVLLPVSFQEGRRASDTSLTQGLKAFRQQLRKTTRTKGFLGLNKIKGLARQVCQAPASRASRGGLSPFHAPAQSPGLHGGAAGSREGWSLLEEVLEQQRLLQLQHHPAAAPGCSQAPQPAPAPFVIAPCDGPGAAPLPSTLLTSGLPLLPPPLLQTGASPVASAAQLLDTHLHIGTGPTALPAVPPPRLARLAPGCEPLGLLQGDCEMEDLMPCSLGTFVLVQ

A further assay has as its target GST-tagged SIK3 (Homo sapiens (Human), UniProt Q9Y2K2). The assay is described as follows: SIK3 inhibition test (ADP-Glo Max Assay). The conditions noted are these: enzyme 100 nM, AMARA Peptide 100 μM, ATP 1 mM, 2 hours room temperature. The procedure, abridged: as §1
On the technique in general: ADP-Glo first removes unused ATP, then detects ADP through luciferase.

The target in the next assay is GST-tagged SIK2 (Homo sapiens (Human), UniProt Q9H0K1). As to the kind of experiment: SIK2 inhibition test (ADP-Glo Max Assay). The note with it: enzyme 3 nM, AMARA Peptide 200 μM, ATP 1 mM, 2 hours room temperature. The procedure, abridged:
as §1

GST-tagged SIK2, sequence (Q9H0K1 whole entry): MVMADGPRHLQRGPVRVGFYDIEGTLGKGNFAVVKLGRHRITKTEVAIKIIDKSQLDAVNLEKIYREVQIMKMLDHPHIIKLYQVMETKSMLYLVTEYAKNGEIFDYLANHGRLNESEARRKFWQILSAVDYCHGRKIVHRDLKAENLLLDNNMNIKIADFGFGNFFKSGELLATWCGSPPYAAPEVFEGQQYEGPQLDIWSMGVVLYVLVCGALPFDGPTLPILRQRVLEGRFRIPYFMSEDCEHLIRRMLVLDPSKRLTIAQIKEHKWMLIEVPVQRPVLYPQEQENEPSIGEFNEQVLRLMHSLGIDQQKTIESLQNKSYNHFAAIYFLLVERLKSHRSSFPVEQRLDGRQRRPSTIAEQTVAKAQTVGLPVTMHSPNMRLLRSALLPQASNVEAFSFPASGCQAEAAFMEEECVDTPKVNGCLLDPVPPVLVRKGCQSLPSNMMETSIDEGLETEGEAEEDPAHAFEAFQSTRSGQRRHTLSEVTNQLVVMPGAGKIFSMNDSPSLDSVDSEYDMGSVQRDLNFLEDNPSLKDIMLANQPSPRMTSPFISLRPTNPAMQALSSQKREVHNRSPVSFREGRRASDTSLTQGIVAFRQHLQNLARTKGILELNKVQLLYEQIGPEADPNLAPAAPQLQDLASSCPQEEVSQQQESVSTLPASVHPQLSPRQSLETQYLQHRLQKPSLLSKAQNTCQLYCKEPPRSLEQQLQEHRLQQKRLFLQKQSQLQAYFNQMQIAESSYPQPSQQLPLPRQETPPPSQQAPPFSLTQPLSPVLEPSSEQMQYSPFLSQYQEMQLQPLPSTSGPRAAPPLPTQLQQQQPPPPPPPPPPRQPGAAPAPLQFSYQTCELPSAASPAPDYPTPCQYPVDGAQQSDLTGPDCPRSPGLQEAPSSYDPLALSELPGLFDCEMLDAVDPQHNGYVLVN
GST-tagged SIK3, sequence (Q9Y2K2 whole entry): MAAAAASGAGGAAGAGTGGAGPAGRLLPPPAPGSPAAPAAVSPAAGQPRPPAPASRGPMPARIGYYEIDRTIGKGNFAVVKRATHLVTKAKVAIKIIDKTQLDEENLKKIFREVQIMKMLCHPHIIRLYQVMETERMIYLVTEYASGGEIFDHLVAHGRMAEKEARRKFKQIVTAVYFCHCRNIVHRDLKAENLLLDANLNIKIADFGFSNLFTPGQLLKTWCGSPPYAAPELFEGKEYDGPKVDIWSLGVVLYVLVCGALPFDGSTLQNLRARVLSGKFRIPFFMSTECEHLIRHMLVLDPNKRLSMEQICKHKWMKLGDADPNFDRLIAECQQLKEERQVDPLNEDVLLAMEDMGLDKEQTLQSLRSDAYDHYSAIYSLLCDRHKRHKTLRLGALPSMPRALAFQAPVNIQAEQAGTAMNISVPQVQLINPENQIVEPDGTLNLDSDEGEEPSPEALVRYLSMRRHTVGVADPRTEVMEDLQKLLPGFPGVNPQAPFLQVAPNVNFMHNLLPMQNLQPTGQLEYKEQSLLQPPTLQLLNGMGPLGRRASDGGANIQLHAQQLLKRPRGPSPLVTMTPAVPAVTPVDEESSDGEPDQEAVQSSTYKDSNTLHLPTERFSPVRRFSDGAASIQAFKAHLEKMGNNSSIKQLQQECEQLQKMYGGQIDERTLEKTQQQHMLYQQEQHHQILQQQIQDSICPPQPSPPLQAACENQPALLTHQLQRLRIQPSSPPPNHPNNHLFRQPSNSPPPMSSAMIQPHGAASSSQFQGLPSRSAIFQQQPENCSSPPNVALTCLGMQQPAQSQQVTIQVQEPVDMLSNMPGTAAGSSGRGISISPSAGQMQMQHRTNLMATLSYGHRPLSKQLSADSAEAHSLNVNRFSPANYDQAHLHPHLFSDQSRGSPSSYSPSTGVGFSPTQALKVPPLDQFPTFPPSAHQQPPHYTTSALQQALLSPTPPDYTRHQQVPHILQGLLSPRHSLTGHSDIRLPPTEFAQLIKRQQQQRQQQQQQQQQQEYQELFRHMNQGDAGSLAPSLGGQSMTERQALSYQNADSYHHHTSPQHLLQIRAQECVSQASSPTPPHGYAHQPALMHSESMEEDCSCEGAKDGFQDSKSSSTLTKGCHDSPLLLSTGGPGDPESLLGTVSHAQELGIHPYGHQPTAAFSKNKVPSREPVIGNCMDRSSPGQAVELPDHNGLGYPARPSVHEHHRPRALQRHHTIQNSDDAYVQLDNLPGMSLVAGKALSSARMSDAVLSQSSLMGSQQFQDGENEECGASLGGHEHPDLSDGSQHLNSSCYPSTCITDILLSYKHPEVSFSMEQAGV

What is called IC50 is the midpoint of a concentration-inhibition curve. For the compound `COc1cc(-c2c3c(C(F)F)cc(-c4cnn(CC(=O)N(C)C)c4)cc3nn2C)cc(OC(F)F)c1C(=O)N1CC(O)(C(F)(F)F)C1` [Example 60, 2-[4-[3-[3-(difluoromethoxy)-4-[3-hydroxy-3-(trifluoromethyl)azetidin-1-carbonyl]-5-methoxyphenyl]-4-(difluoromethyl)-2-methylindazol-6-yl]pyrazol-1-yl]-N,N-dimethylacetamide], the values for the IC50 on GST-tagged SIK1, against GST-tagged SIK3 and on GST-tagged SIK2 were 6.9 nM, 4.9 nM and 4.8 nM, respectively.

In the case of `COc1cc(-c2cnn(C[C@H](C)O)c2)cc2nn(C)c(-c3cc(OC(F)F)c4c(c3)[C@@H](C)CNC4=O)c12` (single isomer, unassigned) [Example 176], the values for the IC50 at GST-tagged SIK1, against GST-tagged SIK3 and against GST-tagged SIK2 were 11 nM, 11.9 nM and 5.9 nM, respectively.

As to `COc1cc(-c2c3c(C#N)cc(-c4cnn(C5CCOC5)c4)cc3nn2C)cc(OC(F)F)c1C(=O)N[C@@H]1C[C@@H]1F` (stereo partly drawn) [Example 22, 4-[4-cyano-2-methyl-6-[1-(oxolan-3-yl)pyrazol-4-yl]indazol-3-yl]-2-(difluoromethoxy)-N-[(1R,2S)-2-fluorocyclopropyl]-6-methoxybenzamide], the IC50 was 2 nM on GST-tagged SIK1, 7.7 nM against GST-tagged SIK3 and 3.2 nM on GST-tagged SIK2.

On to `COc1cc(-c2c3c(C#N)cc(-c4cnn(C)c4)cc3nn2C)cc(OC(F)F)c1C(=O)N1CC(C)(C(F)F)C1` [Example 8, 3-[3-(difluoromethoxy)-4-[3-(difluoromethyl)-3-methylazetidin-1-carbonyl]-5-methoxyphenyl]-2-methyl-6-(1-methylpyrazol-4-yl)indazole-4-carbonitrile], for which the IC50 at GST-tagged SIK1 was 7.2 nM; against GST-tagged SIK3, 5.8 nM; at GST-tagged SIK2, 9.7 nM.

As for `COc1cc(-c2c3c(C#N)cc(-c4cnn(CC5(F)COC5)c4)cc3nn2C)cc(OC(F)F)c1C(=O)NCC1(F)CC1` [Example 76, 4-[4-cyano-6-[1-[(3-fluorooxetan-3-yl)methyl]pyrazol-4-yl]-2-methylindazol-3-yl]-2-(difluoromethoxy)-N-[(1-fluorocyclopropyl)methyl]-6-methoxybenzamide], the IC50 against GST-tagged SIK1 stood at 17.6 nM; on GST-tagged SIK3, 11.7 nM; against GST-tagged SIK2, 5.3 nM.

With `COc1cc(-c2c3c(OCC[C@H](C)O)cc(-c4cnn(C)c4)cc3nn2C)cc(OC(F)F)c1C(=O)N1CC(O)(C(F)(F)F)C1` [Example 47, [2-(difluoromethoxy)-4-[4-[(3S)-3-hydroxybutoxy]-2-methyl-6-(1-methylpyrazol-4-yl)indazol-3-yl]-6-methoxyphenyl]-[3-hydroxy-3-(trifluoromethyl)azetidin-1-yl]methanone], the results for the half-maximal inhibitory concentration (IC50) at GST-tagged SIK1, against GST-tagged SIK3 and at GST-tagged SIK2 were 9 nM, 19.2 nM and 16.2 nM, respectively.

As to `COc1cc(-c2c3c(C(F)F)cc(-c4cnn(CC[C@@H](C)O)c4)cc3nn2C)cc(OC(F)F)c1C(=O)N[C@@H]1CC1(F)F` [Example 120, N-[(1R)-2,2-difluorocyclopropyl]-2-(difluoromethoxy)-4-[4-(difluoromethyl)-6-[1-[(3R)-3-hydroxybutyl]pyrazol-4-yl]-2-methylindazol-3-yl]-6-methoxybenzamide], the results for the half-maximal inhibitory concentration (IC50) against GST-tagged SIK1, on GST-tagged SIK3 and at GST-tagged SIK2 were 7.8 nM, 0.7 nM and 3.5 nM, respectively.

Take `COc1cc(-c2cnn(C)c2)cc2nn(C)c(-c3cc(OC(F)F)c4c(c3)[C@@H](C)CNC4=O)c12` (single isomer, unassigned) [Example 166]: the IC50 against GST-tagged SIK1 stood at 11.9 nM; at GST-tagged SIK3, 9.6 nM; against GST-tagged SIK2, 3.1 nM.

Turning to `COc1cc(-c2c3c(C(F)F)cc(-c4cnn(CCC(C)(C)O)c4)cc3nn2C)cc(OC(F)F)c1C(=O)N[C@@H]1CC1(F)F` [Example 119], the figures for the IC50 against GST-tagged SIK1, on GST-tagged SIK3 and against GST-tagged SIK2 were 3.9 nM, 0.7 nM and 2.6 nM, respectively.

Consider `COc1cc(-c2c3c(C#N)cc(-c4cnn(CCC5(O)CCC5)c4)cc3nn2C)cc(OC(F)F)c1C(=O)NCC1(F)CC1` [Example 122, 4-[4-cyano-6-[1-[2-(1-hydroxycyclobutyl)ethyl]pyrazol-4-yl]-2-methylindazol-3-yl]-2-(difluoromethoxy)-N-[(1-fluorocyclopropyl)methyl]-6-methoxybenzamide], for which the IC50 at GST-tagged SIK1 worked out at 15.8 nM; on GST-tagged SIK3, 4.4 nM; against GST-tagged SIK2, 7.9 nM.

Consider `COc1cc(-c2c3c(C(F)F)cc(-c4cnn(C)c4)cc3nn2C)cc(OC(F)F)c1C(=O)N[C@@H]1CC1(F)F` [Example 11, N-[(1R)-2,2-difluorocyclopropyl]-2-(difluoromethoxy)-4-[4-(difluoromethyl)-2-methyl-6-(1-methylpyrazol-4-yl)indazol-3-yl]-6-methoxybenzamide], for which the figures for the half-maximal inhibitory concentration (IC50) on GST-tagged SIK1, at GST-tagged SIK3 and against GST-tagged SIK2 were 9.8 nM, 2.4 nM and 12.3 nM, respectively.

Regarding `COc1cc(-c2c3c(OC)cc(-c4cnn(C)c4)cc3nn2C)cc(OC(F)F)c1C(=O)N[C@@H]1CC1(F)F` [Example 45, N-[(1R)-2,2-difluorocyclopropyl]-2-(difluoromethoxy)-6-methoxy-4-[4-methoxy-2-methyl-6-(1-methylpyrazol-4-yl)indazol-3-yl]benzamide], the IC50 against GST-tagged SIK1 worked out at 18.9 nM; at GST-tagged SIK3, 9.4 nM; against GST-tagged SIK2 it was 8.6 nM.

`COc1cc(-c2c3c(C#N)cc(-c4cnn(C[C@H](O)C(F)(F)F)c4)cc3nn2C)cc(OC(F)F)c1C(=O)N[C@@H]1CC1(F)F` [Example 124, 4-[4-cyano-2-methyl-6-[1-[(2S)-3,3,3-trifluoro-2-hydroxypropyl]pyrazol-4-yl]indazol-3-yl]-N-[(1R)-2,2-difluorocyclopropyl]-2-(difluoromethoxy)-6-methoxybenzamide]: the IC50 amounted to 8 nM at GST-tagged SIK1, 1.6 nM at GST-tagged SIK3 and 1.1 nM on GST-tagged SIK2.

As for `COc1cc(-c2c3c(C#N)cc(-c4cnn(CC(=O)N(C)C)c4)cc3nn2C)cc(OC(F)F)c1C(=O)N1CC(O)(C(F)(F)F)C1` [Example 17, 2-[4-[4-cyano-3-[3-(difluoromethoxy)-4-[3-hydroxy-3-(trifluoromethyl)azetidin-1-carbonyl]-5-methoxyphenyl]-2-methylindazol-6-yl]pyrazol-1-yl]-N,N-dimethylacetamide], the half-inhibitory concentration (IC50) is 5.4 nM against GST-tagged SIK1, 7.1 nM on GST-tagged SIK3 and 8.5 nM on GST-tagged SIK2.

On to `COc1cc(-c2c3c(C#N)cc(-c4cnn(C)c4)cc3nn2C)cc(OC(F)F)c1C(=O)N[C@@H]1CC1(F)F` [Example 23, 4-[4-cyano-2-methyl-6-(1-methylpyrazol-4-yl)indazol-3-yl]-N-[(1R)-2,2-difluorocyclopropyl]-2-(difluoromethoxy)-6-methoxybenzamide], for which the IC50 at GST-tagged SIK1 is 2.1 nM; on GST-tagged SIK3 it was 5 nM; against GST-tagged SIK2, 2.5 nM.

For the compound `COCCn1cc(-c2cc(C#N)c3c(-c4cc(OC(F)F)c5c(c4)[C@@H](C)CNC5=O)n(C)nc3c2)cn1` (single isomer, unassigned) [Example 173], the IC50 against GST-tagged SIK1 was 7.5 nM; against GST-tagged SIK3, 3.5 nM; against GST-tagged SIK2, 2.1 nM.

In the case of `CCn1cc(-c2cc(C#N)c3c(-c4cc(OC)c(C(=O)N5CC(O)(C(F)(F)F)C5)c(OC(F)F)c4)n(C)nc3c2)cn1` [Example 15, 3-[3-(difluoromethoxy)-4-[3-hydroxy-3-(trifluoromethyl)azetidin-1-carbonyl]-5-methoxyphenyl]-6-(1-ethylpyrazol-4-yl)-2-methylindazole-4-carbonitrile], the half-inhibitory concentration (IC50) on GST-tagged SIK1 came to 9.2 nM; against GST-tagged SIK3 it was 1.4 nM; against GST-tagged SIK2 it was 10.3 nM.

As to `COc1cc(-c2c3c(C#N)cc(-c4cnn(CCS(C)(=O)=O)c4)cc3nn2C)cc(OC(F)F)c1C(=O)NCC1(F)CC1` [Example 54, 4-[4-cyano-2-methyl-6-[1-(2-methylsulfonylethyl)pyrazol-4-yl]indazol-3-yl]-2-(difluoromethoxy)-N-[(1-fluorocyclopropyl)methyl]-6-methoxybenzamide], the IC50 came out at 10.1 nM against GST-tagged SIK1, 5.1 nM against GST-tagged SIK3 and 3.2 nM on GST-tagged SIK2.

Regarding `COc1cc(-c2c3c(OCc4cnccn4)cc(-c4cnn(C)c4)cc3nn2C)cc(OC(F)F)c1C(=O)N1CC(O)(C(F)(F)F)C1` [Example 48, [2-(difluoromethoxy)-6-methoxy-4-[2-methyl-6-(1-methylpyrazol-4-yl)-4-(pyrazin-2-ylmethoxy)indazol-3-yl]phenyl]-[3-hydroxy-3-(trifluoromethyl)azetidin-1-yl]methanone], the half-maximal inhibitory concentration (IC50) at GST-tagged SIK1 is 3.5 nM; against GST-tagged SIK3, 11.2 nM; against GST-tagged SIK2, 10.6 nM.

For `COc1cc(-c2c3c(C(F)F)cc(-c4cn[nH]c4)cc3nn2C)cc(OC(F)F)c1C(=O)N1CC(O)(C(F)F)C1` [Example 69, [2-(difluoromethoxy)-4-[4-(difluoromethyl)-2-methyl-6-(1H-pyrazol-4-yl)indazol-3-yl]-6-methoxyphenyl]-[3-(difluoromethyl)-3-hydroxyazetidin-1-yl]methanone], the IC50 against GST-tagged SIK1 is 8.3 nM; at GST-tagged SIK3, 2 nM; on GST-tagged SIK2, 10.9 nM.

Take `COc1cc(-c2c3c(OCC(F)(F)F)cc(-c4cnn(C)c4)cc3nn2C)cc(OC(F)F)c1C(=O)N1CC(O)(C(F)(F)F)C1` [Example 30, [2-(difluoromethoxy)-6-methoxy-4-[2-methyl-6-(1-methylpyrazol-4-yl)-4-(2,2,2-trifluoroethoxy)indazol-3-yl]phenyl]-[3-hydroxy-3-(trifluoromethyl)azetidin-1-yl]methanone]: the half-inhibitory concentration (IC50) on GST-tagged SIK1 was determined as 5.1 nM; at GST-tagged SIK3, 3.6 nM; against GST-tagged SIK2 it was 6.6 nM.
